Where two headings read alike, the source gives them in different places.
Assays:
[1] = biological target: T1, Glutamate, NMDA, Glycine (Stry-insens Site) (Homo sapiens, UniProt Q05586); experiment: NovaScreen assay; format: binding; conditions: read-out: Inhibition, 10 μM XL-647
T1 construct: NovaScreen

[2] = system: subjects with relapsed or recurrent NSCLC; experiment: Clinical Study XL-647-203 (Phase 2, relapsed or recurrent NSCLC); format: in vivo, human; conditions: n=41
Text: Study XL-647-203: Subjects (n=41) with relapsed or recurrent NSCLC (Stage IIIB or IV) with documented progressive disease after benefit from single agent treatment with erlotinib or gefitinib or with a known EGFR T790M mutation were enrolled.

[3] = human, in vivo
[4] = system: Potassium Channel, ATP-Sensitive; experiment: NovaScreen assay; format: binding
[5] = system: AKT phosphorylation (H1975 cells); experiment: Immunoblot analysis of H1975 cell lysates; format: cell-based, human
Description: (§1) For the H1975 immunoblot studies, 3×10^5 cells were plated in each well (12-well plate) and incubated for 16 h in complete RPMI 1640, rinsed with fetal bovine serum-free RPMI 1640, and incubated with serial dilutions of test compounds in fetal bovine serum-free medium for 2 h followed by stimulation with 100 ng/mL human recombinant EGF for 10 min. Whole-cell protein lysates were prepared as described above and centrifuged for 10 min at 13,000×g at 4° C. to remove any insoluble material. Total protein was determined using bicinchoninic acid reagent and an equal amount of protein was combined with LDS loading buffer (Invitrogen) according to the manufacturer's instructions. Proteins were separated by gel electrophoresis on 4% to 15% polyacrylamide gels, transferred to nitrocellulose membranes, and detected by immunoblotting. Antibody:antigen complexes were detected using chemiluminescence. The following antibodies from Cell Signaling Technology were used at a 1:1,000 dilution: anti-EGFR, anti-pEGFR^Tyr1068, anti-AKT, anti-pAKT^Ser473, anti-ERK, and anti-pERK^Thr202/Tyr204. The anti-β-actin primary antibody (Accurate Chemical and Scientific) was used at 1:10,000 and the horseradish peroxidase-coupled secondary antibodies were purchased from Jackson ImmunoResearch and used at 1:5,000.

[6] = system: ERK phosphorylation (H1975 cells); experiment: Immunoblot analysis of H1975 cell lysates; format: cell-based, human
Description: as §1

[7] = system: Muscarinic, Non-selective, Central; experiment: NovaScreen assay; format: binding
[8] = human
FGFR1 = biological target: T2, FGFR1 (Homo sapiens, UniProt P11362); experiment: AlphaScreen kinase assay; format: biochemical
T2 construct: cytoplasmic; GST-His6 (N); purchased ProQinase
T2 sequence (P11362 398-822 limits assumed): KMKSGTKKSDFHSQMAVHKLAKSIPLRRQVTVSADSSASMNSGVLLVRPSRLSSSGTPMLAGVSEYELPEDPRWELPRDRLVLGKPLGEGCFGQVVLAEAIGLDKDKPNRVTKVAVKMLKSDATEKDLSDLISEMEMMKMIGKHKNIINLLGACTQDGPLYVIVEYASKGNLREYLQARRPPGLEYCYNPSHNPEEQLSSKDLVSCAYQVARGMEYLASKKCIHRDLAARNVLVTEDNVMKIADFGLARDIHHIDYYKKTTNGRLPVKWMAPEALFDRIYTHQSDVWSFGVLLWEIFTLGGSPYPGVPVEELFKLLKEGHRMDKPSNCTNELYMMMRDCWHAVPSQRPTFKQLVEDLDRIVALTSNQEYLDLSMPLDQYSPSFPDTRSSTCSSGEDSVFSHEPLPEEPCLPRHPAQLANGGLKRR
Description: (§2) An AlphaScreen tyrosine kinase assay was used to measure ErbB2 and Flt-4 activity. Donor beads coated with streptavidin and acceptor beads coated with PY100 anti-phosphotyrosine antibody (Perkin-Elmer) were used. Biotinylated poly(Glu,Tyr) 4:1 was used as the substrate. Substrate phosphorylation was measured by luminescence following donor-acceptor bead addition followed by complex formation. Test compound, 3 μmol/L ATP, 3 nmol/L biotinylated poly(Glu,Tyr) 4:1, and 1 nmol/L ErbB2 (residues Q679-V1255 of human ErbB2, Proqinase) or Flt-4 (residues D725-R1298 of human Flt-4, Proqinase) were combined in a volume of 20 μL Assay Buffer (20 mM TrisHCl, pH 7.5, 10 mM MgCl2, 3 mM MnCl2, 1 mM DTT, 0.01% Triton) in a 384-well white, medium-binding microtiter plate (Greiner). Reaction mixtures were incubated for 1 h at room temperature. Reactions were quenched by addition of 10 μL of 15 to 30 μg/mL AlphaScreen bead suspension containing 75 mmol/L HEPES (pH 7.4), 300 mmol/L NaCl, 120 mmol/L EDTA, 0.3% bovine serum albumin, and 0.03% Tween 20. After 2 to 16 h of incubation at room temperature, plates were read using an AlphaQuest reader (Perkin-Elmer).
(§3) Further screening was performed using the biochemical assay methods of Example 2. Additional description of the components and concentrations are summarized in Table 8, Table 9, and Table 10, below.

Fyn = biological target: T3, Fyn (Homo sapiens, UniProt P06241); experiment: AlphaScreen kinase assay; format: biochemical
T3 construct: His6 (N); purchased Upstate Biotechnology
T3 sequence (P06241 whole entry): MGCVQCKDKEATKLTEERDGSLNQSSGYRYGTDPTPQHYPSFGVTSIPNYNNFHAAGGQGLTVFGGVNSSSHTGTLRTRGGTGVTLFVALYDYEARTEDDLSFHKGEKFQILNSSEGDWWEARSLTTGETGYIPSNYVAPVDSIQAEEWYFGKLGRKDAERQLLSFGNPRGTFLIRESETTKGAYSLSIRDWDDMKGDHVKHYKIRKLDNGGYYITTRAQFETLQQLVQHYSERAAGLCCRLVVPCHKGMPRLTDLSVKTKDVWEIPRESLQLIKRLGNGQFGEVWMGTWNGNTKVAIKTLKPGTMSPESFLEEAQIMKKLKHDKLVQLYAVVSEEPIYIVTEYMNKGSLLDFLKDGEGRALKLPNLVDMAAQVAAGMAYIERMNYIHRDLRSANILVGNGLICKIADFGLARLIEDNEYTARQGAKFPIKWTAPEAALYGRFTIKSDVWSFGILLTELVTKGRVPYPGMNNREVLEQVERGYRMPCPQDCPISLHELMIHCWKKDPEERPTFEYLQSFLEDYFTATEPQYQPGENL
Description: as §2, §3

EGFR WT (pTet-On/Lx-1) = EGFR WT (pTet-On/Lx-1) (Homo sapiens, UniProt P00533); experiment: EGFR phosphorylation ELISA in transfected Lx-1 cells
Chain of EGFR WT (pTet-On/Lx-1) (P00533 25-1210): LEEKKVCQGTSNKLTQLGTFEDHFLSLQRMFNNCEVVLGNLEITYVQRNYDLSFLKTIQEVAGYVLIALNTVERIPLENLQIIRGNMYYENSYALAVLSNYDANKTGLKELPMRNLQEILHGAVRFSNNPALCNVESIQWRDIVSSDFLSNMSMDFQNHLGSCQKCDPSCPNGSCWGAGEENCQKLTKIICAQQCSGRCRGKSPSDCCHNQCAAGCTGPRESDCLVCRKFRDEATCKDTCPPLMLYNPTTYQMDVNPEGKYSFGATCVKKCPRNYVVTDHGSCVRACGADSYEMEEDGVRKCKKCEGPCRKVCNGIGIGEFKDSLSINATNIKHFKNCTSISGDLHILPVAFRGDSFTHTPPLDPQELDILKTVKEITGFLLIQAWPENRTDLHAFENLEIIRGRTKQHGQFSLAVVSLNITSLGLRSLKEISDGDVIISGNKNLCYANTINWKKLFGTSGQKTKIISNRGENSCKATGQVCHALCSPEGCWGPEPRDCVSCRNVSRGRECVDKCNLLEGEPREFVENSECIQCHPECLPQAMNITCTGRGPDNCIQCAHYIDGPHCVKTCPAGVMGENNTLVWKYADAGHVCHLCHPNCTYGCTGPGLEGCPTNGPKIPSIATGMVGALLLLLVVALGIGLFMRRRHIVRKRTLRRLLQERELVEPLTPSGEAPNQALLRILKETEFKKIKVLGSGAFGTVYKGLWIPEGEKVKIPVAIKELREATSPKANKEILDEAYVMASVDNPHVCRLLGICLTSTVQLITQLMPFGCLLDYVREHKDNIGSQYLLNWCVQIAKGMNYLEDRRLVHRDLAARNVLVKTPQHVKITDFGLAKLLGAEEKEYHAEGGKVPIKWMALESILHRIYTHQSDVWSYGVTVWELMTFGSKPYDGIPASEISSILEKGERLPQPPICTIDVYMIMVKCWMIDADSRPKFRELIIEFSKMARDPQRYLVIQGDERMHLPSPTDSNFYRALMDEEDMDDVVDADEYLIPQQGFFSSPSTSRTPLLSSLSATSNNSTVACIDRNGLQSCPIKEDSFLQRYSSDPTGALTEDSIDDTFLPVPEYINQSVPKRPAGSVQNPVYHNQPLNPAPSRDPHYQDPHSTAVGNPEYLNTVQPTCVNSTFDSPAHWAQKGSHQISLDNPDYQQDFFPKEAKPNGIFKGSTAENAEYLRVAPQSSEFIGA
Description: Lx-1 cells were used because they lack background EGFR activity. A clone corresponding to the longest EGFR isoform (Genbank accession no. NM_005228.3/NP_005219.2 #21-176, Upstate Biotechnology) was used as a template to produce two mutant EGFR genes (coding for L858R and L861Q) by site-directed mutagenesis. The WT and the two sequence-verified mutants were transferred to a COOH-terminal Flag-tagged retroviral cytomegalovirus promoter-driven mammalian expression vector. The two Tet-On expression vectors, EGFR WT (Tet-On) and EGFRvIII (Tet-On), which were COOH-terminally Flag tagged, were generously provided by Dr. Abhijit Guha (University of Toronto, Toronto, Ontario, Canada).
Transient transfections of Lx-1 cells were done using Lipofectamine 2000 (Invitrogen) according to the manufacturer's protocol. For transfections of the WT, L858R, and L861Q constructs, 1 μg plasmid DNA was used for each transfection (each well of a 12-well plate). […]
For the EGFR phosphorylation ELISA, Reacti-Bind streptavidin-coated plates (Pierce) were coated with 2 μg/mL biotin-conjugated anti-Flag antibody (Sigma). […] Horseradish peroxidase activity was determined by reading the plates in a Victor2 plate reader following addition of the ELISA Femto substrate.

KDR = KDR (Homo sapiens, UniProt P35968); experiment: Mechanism of action study / Ki determination; format: biochemical; design: residues D807-V1356 of human KDR, Proqinase; purchased Proqinase
Chain of KDR (P35968 807-1356): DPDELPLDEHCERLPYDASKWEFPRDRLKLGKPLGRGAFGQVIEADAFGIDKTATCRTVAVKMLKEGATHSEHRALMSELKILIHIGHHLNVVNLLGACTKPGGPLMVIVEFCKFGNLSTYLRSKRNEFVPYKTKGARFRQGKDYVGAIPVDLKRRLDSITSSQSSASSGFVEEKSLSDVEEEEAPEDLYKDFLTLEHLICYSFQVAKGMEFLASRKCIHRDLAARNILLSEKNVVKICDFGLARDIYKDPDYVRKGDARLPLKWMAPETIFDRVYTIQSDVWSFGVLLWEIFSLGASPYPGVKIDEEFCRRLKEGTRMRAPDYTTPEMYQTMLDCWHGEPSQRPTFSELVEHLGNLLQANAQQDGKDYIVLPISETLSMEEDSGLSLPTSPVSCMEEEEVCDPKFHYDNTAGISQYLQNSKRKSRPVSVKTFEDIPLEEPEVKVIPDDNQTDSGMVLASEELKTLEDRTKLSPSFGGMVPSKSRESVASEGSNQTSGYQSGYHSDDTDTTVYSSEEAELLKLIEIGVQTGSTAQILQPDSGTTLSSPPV
Description: Enzymatic activity was measured by standard methods after dilution of the enzyme-inhibitor complex.

[9] = biological target: T4, GABA A, BDZ, alpha 1, Central (Homo sapiens, UniProt P14867+P18507); experiment: NovaScreen assay; format: binding; conditions: read-out: Inhibition, 10 μM XL-647
T4 construct: NovaScreen

Neurokinin, NK1 = biological target: T5, Neurokinin, NK1 (Homo sapiens, UniProt P25103); experiment: NovaScreen assay; format: binding; conditions: read-out: Inhibition, 10 μM XL-647
T5 construct: NovaScreen
T5 sequence (P25103 whole entry): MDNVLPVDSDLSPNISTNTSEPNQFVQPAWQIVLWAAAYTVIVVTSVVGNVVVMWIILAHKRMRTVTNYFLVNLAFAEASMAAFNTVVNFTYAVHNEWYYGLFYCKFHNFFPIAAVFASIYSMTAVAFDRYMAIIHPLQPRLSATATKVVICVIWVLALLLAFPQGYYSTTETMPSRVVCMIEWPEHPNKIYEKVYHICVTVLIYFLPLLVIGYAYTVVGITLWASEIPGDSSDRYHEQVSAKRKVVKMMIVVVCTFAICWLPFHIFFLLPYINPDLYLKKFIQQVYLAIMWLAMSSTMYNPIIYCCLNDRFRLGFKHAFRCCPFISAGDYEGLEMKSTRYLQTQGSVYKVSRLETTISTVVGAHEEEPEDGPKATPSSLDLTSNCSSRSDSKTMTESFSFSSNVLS

[10] = system: Adrenergic, Beta, Non-selective; experiment: NovaScreen assay; format: binding
PKA = biological target: T6, PKA (Bos taurus, UniProt P00517); experiment: Chemiluminescent kinase assay; format: biochemical, bovine
T6 construct: Bovine (Heart),; purchased Upstate Biotechnology; host or cells: bovine heart
Description: as §3

BALB/C mice = conditions: mouse, in vivo
wt EGFR (A431) = wt EGFR (A431) (Homo sapiens, UniProt P00533); experiment: Cell-based EGFR autophosphorylation assay in A431 cells; conditions: read-out: IC50, EGFR phosphorylation
Chain of wt EGFR (A431) (P00533 25-1210): as the sequence (P00533 25-1210) above
Description: A431 contains overexpressed wt human EGFR.
A431 and MDA-MB-231 cell lines were maintained and propagated as monolayer cultures in DMEM (Mediatech) containing L-glutamine supplemented with 10% heat-inactivated fetal bovine serum (Hyclone), 100 units/mL penicillin G, 100 μg/mL streptomycin (1% penicillin/streptomycin, Mediatech), and 1% nonessential amino acids (Mediatech) at 37° C. in a humidified 5% CO2 incubator.
A431 cells were seeded at 5×10^4 per well in 96-well microtiter plates (3904 Costar, VWR) and incubated in fully supplemented DMEM for 16 h after which growth medium was replaced with serum-free DMEM and the cells were incubated for an additional 24 h. […] After treatment, cell monolayers were washed with cold PBS and immediately lysed with cold lysis buffer (50 mmol/L Tris-HCl (pH 8.0), 150 mmol/L NaCl, 10% glycerol, 1% NP40, 0.1% SDS, 0.5% sodium deoxycholate, 1 mmol/L EDTA, 50 mmol/L NaF, 1 mmol/L sodium pyrophosphate, 1 mmol/L sodium orthovanadate, 2 mmol/L phenylmethylsulfonyl fluoride, 10 μg/mL aprotinin, 5 μg/mL leupeptin, 5 μg/mL pepstatin). […] Horseradish peroxidase activity was determined by reading the plates in a Victor2 plate reader following addition of the ELISA Femto substrate (Pierce).

COc1cc2c(Nc3ccc(Cl)c(Cl)c3F)ncnc2cc1OC[C@@H]1C[C@@H]2CN(C)C[C@@H]2C1 [XL-647, N-(3,4-dichloro-2-fluorophenyl)-7-({[(3aR,5r,6aS)-2-methyloctahydrocyclopenta[c]pyrrol-5-yl]methyl}oxy)-6-(methyloxy)quinazolin-4-amine]
inhibition at 10 µM [1]: 6.46%
subjects with PR [2]: one
subjects with SD as best response [2]: 19 subjects
dose proportionality of AUC and Cmax, in words [3]: generally increased in proportion with dose
Inhibition, 10 μM XL-647 [4]: 5.02%
phosphorylation of AKT, immunoblot [5]: inhibits the phosphorylation of AKT and ERK
phosphorylation of ERK, immunoblot [6]: inhibits the phosphorylation of AKT and ERK
IC50 [7]: 2570 nM
Inhibition, 10 μM XL-647 ([7]; 10 μM): 97.91%
protein bound [8]: 93-99%
IC50 (FGFR1): 855 ± 96.3 nM
IC50 (Fyn): 41 ± 8.1 nM
IC50 (EGFR WT (pTet-On/Lx-1)): 5 nM
ATP-Competitive (KDR): Yes
Ki (KDR): 0.6 nM
Reversible (KDR): Yes
inhibition at 10 µM [9]: 7.34%
inhibition at 10 µM (Neurokinin, NK1): 20.4%
Inhibition, 10 μM XL-647 [10]: 18.01%
IC50 (PKA): > 10000 nM
BUN (BALB/C mice; 7.5 mg/kg/day): 19.00 mg/dL
CT-CI (BALB/C mice; 7.5 mg/kg/day): 0
Creatinine (BALB/C mice; 7.5 mg/kg/day): 0.24 mg/dL
MUCA (BALB/C mice; 7.5 mg/kg/day): 1029 mOsmol
BUN (BALB/C mice; 15 mg/kg/day): 19.29 mg/dL
CT-CI (BALB/C mice; 15 mg/kg/day): 0
Creatinine (BALB/C mice; 15 mg/kg/day): 0.29 mg/dL
MUCA (BALB/C mice; 15 mg/kg/day): 1029 mOsmol
IC50 (wt EGFR (A431)): 1 nM
